Laboratory results published in US20240018128A1, “PESTICIDALLY ACTIVE HETEROCYCLIC DERIVATIVES WITH SULFUR CONTAINING SUBSTITUENTS” (SYNGENTA CROP PROTECTION AG, priority 2020, published 2024).

What was measured:
Format in all cases: in vivo
[1] = test system: Plutella xylostella (diamond back moth); test: Example B5: Activity against Plutella xylostella (diamond back moth); conditions: 192 h, application rate 200 ppm, artificial diet treated by pipetting, eggs, 8 days after infestation, read-out: effect in at least one of the two categories (mortality or growth inhibition)
Experimental: Example B5: Activity Against Plutella xylostella (Diamond Back Moth)
24-well microtiter plates with artificial diet were treated with aqueous test solutions prepared from 10,000 ppm DMSO stock solutions by pipetting. After drying, Plutella eggs were pipetted through a plastic stencil onto a gel blotting paper and the plate was closed with it. The samples were assessed for mortality and growth inhibition in comparison to untreated samples 8 days after infestation. The following compounds gave an effect of at least 80% in at least one of the two categories (mortality or growth inhibition) at an application rate of 200 ppm: P1, P2, P4, P5, P6, P7, P9, P10, P11, P12, P13, P14, P15, P16, P17, P18.

[2] = test system: Myzus persicae (green peach aphid); test: Example B4: Activity against Myzus persicae (green peach aphid), feeding/contact activity; conditions: foliar, 144 h, application rate 200 ppm, sunflower leaf discs sprayed, aphid population of mixed ages, 6 days after infestation
Experimental: Example B4: Activity Against Myzus persicae (Green Peach Aphid) Feeding/Contact Activity
Sunflower leaf discs were placed onto agar in a 24-well microtiter plate and sprayed with aqueous test solutions prepared from 10,000 ppm DMSO stock solutions. After drying, the leaf discs were infested with an aphid population of mixed ages. The samples were assessed for mortality 6 days after infestation.

[3] = test system: Chilo suppressalis (striped rice stemborer); test: Example B8: Activity against Chilo suppressalis (striped rice stemborer); conditions: 144 h, application rate 200 ppm, artificial diet treated by pipetting, L2 larvae, 6 days after infestation, read-out: control (mortality, anti-feeding effect or growth inhibition)
Experimental: Example B8: Activity Against Chilo suppressalis (Striped Rice Stemborer)
24-well microtiter plates with artificial diet were treated with aqueous test solutions prepared from 10,000 ppm DMSO stock solutions by pipetting. After drying, the plates were infested with L2 larvae (6-8 per well). The samples were assessed for mortality, anti-feeding effect, and growth inhibition in comparison to untreated samples 6 days after infestation. Control of Chilo suppressalis by a test sample is given when at least one of the categories mortality, anti-feedant effect, and growth inhibition is higher than the untreated sample.

[4] = test system: Spodoptera littoralis (Egyptian cotton leaf worm); test: Example B6: Activity against Spodoptera littoralis (Egyptian cotton leaf worm); conditions: foliar, 72 h, application rate 200 ppm, cotton leaf discs sprayed, L1 larvae, 3 days after infestation, read-out: control (mortality, anti-feeding effect or growth inhibition)
Experimental: Example B6: Activity Against Spodoptera littoralis (Egyptian Cotton Leaf Worm)
Cotton leaf discs were placed onto agar in 24-well microtiter plates and sprayed with aqueous test solutions prepared from 10,000 ppm DMSO stock solutions. After drying the leaf discs were infested with five L1 larvae. The samples were assessed for mortality, anti-feeding effect, and growth inhibition in comparison to untreated samples 3 days after infestation. Control of Spodoptera littoralis by a test sample is given when at least one of the categories mortality, anti-feedant effect, and growth inhibition is higher than the untreated sample.

[5] = test system: Frankliniella occidentalis (western flower thrips); test: Example B3: Activity against Frankliniella occidentalis (western flower thrips), feeding/contact activity; conditions: foliar, 168 h, application rate 200 ppm, sunflower leaf discs sprayed, population of mixed ages, 7 days after infestation
Experimental: Example B3: Activity Against Frankliniella occidentalis (Western Flower Thrips) Feeding/Contact Activity
Sunflower leaf discs were placed on agar in 24-well microtiter plates and sprayed with aqueous test solutions prepared from 10,000 DMSO stock solutions. After drying the leaf discs were infested with a Frankliniella population of mixed ages. The samples were assessed for mortality 7 days after infestation.

[6] = test system: Diabrotica balteata (corn root worm); test: Example B1: Activity against Diabrotica balteata (corn root worm); conditions: 96 h, application rate 200 ppm, maize sprouts sprayed, L2 larvae, 4 days after infestation, read-out: effect in at least one of the two categories (mortality or growth inhibition)
Experimental: Example B1: Activity Against Diabrotica Balteata (Corn Root Worm)
Maize sprouts placed onto an agar layer in 24-well microtiter plates were treated with aqueous test solutions prepared from 10,000 ppm DMSO stock solutions by spraying. After drying, the plates were infested with L2 larvae (6 to 10 per well). The samples were assessed for mortality and growth inhibition in comparison to untreated samples 4 days after infestation.

[7] = test system: Euschistus heros (neotropical brown stink bug); test: Example B2: Activity against Euschistus heros (neotropical brown stink bug); conditions: 120 h, application rate 200 ppm, soybean leaves sprayed, N2 nymphs, 5 days after infestation, read-out: effect in at least one of the two categories (mortality or growth inhibition)
Experimental: Example B2: Activity Against Euschistus heros (Neotropical Brown Stink Bug)
Soybean leaves on agar in 24-well microtiter plates were sprayed with aqueous test solutions prepared from 10,000 ppm DMSO stock solutions. After drying the leaves were infested with N2 nymphs. The samples were assessed for mortality and growth inhibition in comparison to untreated samples 5 days after infestation.

[8] = test system: Myzus persicae (green peach aphid); test: Example B9: Activity against Myzus persicae (green peach aphid), systemic activity; conditions: 144 h, test rate 24 ppm, roots of infested pea seedlings placed into test solution, 6 days
Experimental: Example B9: Activity Against Myzus persicae (Green Peach Aphid). Systemic Activity
Roots of pea seedlings infested with an aphid population of mixed ages were placed directly into aqueous test solutions prepared from 10,000 DMSO stock solutions. The samples were assessed for mortality 6 days after placing seedlings into test solutions.

[9] = test system: Bemisia tabaci (cotton white fly); test: Example B7: Activity against Bemisia tabaci (cotton white fly), feeding/contact activity; conditions: foliar, 144 h, application rate 200 ppm, cotton leaf discs sprayed, adult white flies, 6 days after incubation
Experimental: Example B7: Activity Against Bemisia tabaci (Cotton White Fly) Feeding/Contact Activity
Cotton leaf discs were placed on agar in 24-well microtiter plates and sprayed with aqueous test solutions prepared from 10,000 ppm DMSO stock solutions. After drying the leaf discs were infested with adult white flies. The samples were checked for mortality 6 days after incubation.

CCS(=O)(=O)c1c(N2Cc3ccc(OC(F)(F)F)cc3C2=O)nc(-c2cnn(C3CC3)c2)n1C [Compound P1, 2-[2-(1-cyclopropylpyrazol-4-yl)-5-ethylsulfonyl-1-methyl-imidazol-4-yl]-6-(trifluoromethoxy)isoindolin-1-one]
≥ 80%: effect (mortality or growth inhibition) at 200 ppm [1] | mortality at 200 ppm [2] | control at 200 ppm [3] | control at 200 ppm [4] | mortality at 200 ppm [5] | mortality or growth inhibition at 200 ppm [6] | percent effect (mortality or growth inhibition) at 200 ppm [7]

CCS(=O)(=O)c1c(N2Cc3ncc(C(F)(F)F)cc3C2=O)nc(C2CC2)n1C [Compound P17, 6-(2-cyclopropyl-5-ethylsulfonyl-1-methyl-imidazol-4-yl)-3-(trifluoromethyl)-7H-pyrrolo[3,4-b]pyridin-5-one]
≥ 80%: effect (mortality or growth inhibition) at 200 ppm [1] | mortality at 200 ppm [2] | control at 200 ppm [3] | control at 200 ppm [4] | mortality at 24 ppm [8] | mortality or growth inhibition at 200 ppm [6] | mortality at 200 ppm [9]

CCS(=O)(=O)c1c(N2Cc3ncc(C(F)(F)F)cc3C2=O)nc(-c2cnn(C(F)F)c2)n1C [Compound P13, 6-[2-[1-(difluoromethyl)pyrazol-4-yl]-5-ethylsulfonyl-1-methyl-imidazol-4-yl]-3-(trifluoromethyl)-7H-pyrrolo[3,4-b]pyridin-5-one]
≥ 80%: effect (mortality or growth inhibition) at 200 ppm [1] | mortality at 200 ppm [2] | control at 200 ppm [3] | control at 200 ppm [4] | mortality at 24 ppm [8] | mortality or growth inhibition at 200 ppm [6] | percent effect (mortality or growth inhibition) at 200 ppm [7]

CCS(=O)(=O)c1c(N2Cc3ncc(C(F)(F)F)cc3C2=O)nc(-c2cnn(CC3CC3)c2)n1C [Compound P9, 6-[2-[1-(cyclopropylmethyl)pyrazol-4-yl]-5-ethylsulfonyl-1-methyl-imidazol-4-yl]-3-(trifluoromethyl)-7H-pyrrolo[3,4-b]pyridin-5-one]
≥ 80%: effect (mortality or growth inhibition) at 200 ppm [1] | mortality at 200 ppm [2] | control at 200 ppm [3] | control at 200 ppm [4] | mortality at 24 ppm [8] | mortality or growth inhibition at 200 ppm [6] | percent effect (mortality or growth inhibition) at 200 ppm [7]
